Measurements: BigSolDB 2.1

O=C(O)/C=C/c1ccc(Cl)cc1
solubility (mole fraction)
Details	283.15 K	288.15 K	293.15 K	298.15 K	303.15 K	308.15 K	313.15 K	318.15 K	323.15 K
in 1,4-dioxane	–	0.00826	0.0094	0.0106	0.0118	0.0132	0.0148	0.0158	0.018
in acetone	0.00214	0.00248	0.00303	0.00334	0.00388	0.00434	0.00509	0.00556	0.00654
in acetonitrile	0.000318	0.000351	0.000365	0.000425	0.000468	0.000515	0.000622	0.000803	0.00105
in ethanol	0.00136	0.00166	0.00184	0.00207	0.00238	0.00265	0.00317	0.00363	0.004
in ethyl acetate	0.00159	0.00166	0.0019	0.00214	0.00242	0.00266	0.00315	0.00379	0.00442
in isobutanol	0.00102	0.00125	0.00154	0.00177	0.00195	0.00223	0.00244	0.00282	0.00325
in isopropanol	0.00118	0.00141	0.00165	0.0019	0.00215	0.00255	0.0029	0.00359	0.00454
in methanol	0.00112	0.00123	0.00136	0.00155	0.00172	0.00187	0.00206	0.00233	0.00251
in methyl acetate	0.00142	0.00173	0.00201	0.00231	0.00262	0.00298	0.0033	0.00355	0.0038
in n-butanol	0.00123	0.00154	0.00184	0.00219	0.00249	0.00283	0.00314	0.0037	0.00427
in n-propanol	0.0012	0.00146	0.00177	0.002	0.00234	0.00266	0.00308	0.00361	0.00432
in water	5.3e-06	6.88e-06	8.16e-06	9.38e-06	1.16e-05	1.26e-05	1.51e-05	1.74e-05	2.06e-05
